The nature of series [1]: Aqueous solubility. It is filed as physicochemical. The settings on record: water, read-out: maximum aqueous solubility.
Series [2] deals with L929 murine fibroblasts. Description: Growth inhibition by 5-fluoroorotate, L929 murine fibroblasts (48 hours). It is filed as cell-based. The settings on record: free drug mean of 4 determinations, liposomes from individual growth inhibition curves, read-out: IC50 (concentration of the drug that inhibits cell growth by 50%). The protocol: (§1) All phospholipids (Avanti, Birmingham, Ala.) were used without further purification. Cholesterol (Sigma, St. Louis, Mo.) was recrystallized four times with methanol. All lipids were stored under argon in chloroform solution in sealed ampoules until use. Liposomes were prepared by reverse-phase evaporation (Szoka and Papahadjopoulos (1978) Proc. Natl. Acad. Sci. U.S.A. 75:4194-4198), and extrusion (Szoka et al. (1980) Biochem. et Biophys. Acta. 601:559-571). Small liposomes were made by extensive sonication of lipid suspensions. The unencapsulated drug was removed by gel filtration with Sephadex® G75 (Pharmacia). Lipid concentration was measured by phosporous analysis as described by Bartlett (1959) J. Biol. chem. 234:466-468. The encapsulated drug was measured using a molar extinction coefficient of 7100 in 0.1N HCl. A liposome sample was extracted (Bligh et al. (1959) Can. J. Biochem. Physiol. 37:[…]), the upper phase was acidified with HCl, and its absorbance was meausred. L929 murine fibroblasts and CV1-P cells were obtained and grown as previously described by Heath et al. (1983) Proc. Natl. Acad. Sci. U.S.A. 80:1377-1381 and Fraley et al. (1980) J. Biol. Chem. 255:10431-10435, respectively. The IC50 of the liposome preparations was measured by growth inhibition as previously described by Heath et al. (1983) supra. […]

The test system of series [3] is CV1-P cells. Description: Growth inhibition by 5-fluoroorotate, CV1-P cells (72 hours). The class given is cell-based. The conditions noted are these: free drug mean of 3 determinations, liposomes from individual growth inhibition curves, read-out: IC50 (concentration of the drug that inhibits cell growth by 50%). The protocol:
as §1

Read-outs that look alike come from different tables or passages of the source.

A word on the solubility: it is how much of the substance goes into solution per volume. With `O=C([O-])c1[nH]c(=O)[nH]c(=O)c1F.[Na+]` [Sodium 5-fluoroorotate], the solubility in series [1] was 15 mM.

Take `O=C([O-])c1[nH]c(=O)[nH]c(=O)c1F.[Li+]` [lithium salt, lithium 5-fluoroorotate]: in series [1], the solubility is no less than 50 mM.

`O=C(O)c1[nH]c(=O)[nH]c(=O)c1F` [Free Drug, 5-fluoroorotate]: the IC50 in series [2] (L929, 48 hours) was 1.1 ± 0.3 µM; in series [2] (Mus musculus, L929, 48 h), 1 µM; in series [3] it was 7 µM.
